Source: ChEMBL document CHEMBL3865826, “Synthesis and biological evaluation of a series of non-hemiacetal ester derivatives of artemisinin” (Eur J Med Chem, 2016)

Experiments:
[1] = Thermal stability of the compound assessed as melting point by thermogravimetric analysis; type: physicochemical
Plasmodium falciparum [2] = test: Antiplasmodial activity against chloroquine-sensitive asexual erythrocyte stage form Plasmodium falciparum NF54 measured after 48 hrs by pLDH assay; type: functional; conditions: NF54, 48 h
Plasmodium falciparum [3] = test: Antiplasmodial activity against chloroquine-resistant asexual erythrocyte stage form Plasmodium falciparum Dd2 measured after 48 hrs by pLDH assay; type: functional; conditions: Dd2, 48 h
[4] = Resistance index, ratio of IC50 for chloroquine-resistant asexual erythrocyte stage form Plasmodium falciparum Dd2 to IC50 for chloroquine-sensitive asexual erythrocyte stage form Plasmodium falciparum NF54; type: functional
[5] = Cytotoxicity against CHO cells assessed as reduction in cell viability measured after 48 hrs by MTT assay; type: toxicity, cell-based, Cricetulus griseus; conditions: Chinese hamster
[6] = Selectivity index, ratio of IC50 for CHO cells to IC50 for chloroquine-sensitive asexual erythrocyte stage form Plasmodium falciparum NF54; type: toxicity, cell-based; conditions: hamster, read-out: Ratio IC50
[7] = Thermal stability of the compound assessed as onset of decomposition temperature by thermogravimetric analysis; type: physicochemical
[8] = Cytotoxicity against human WI38 cells assessed as reduction in cell viability measured after 48 hrs by SRB assay; type: toxicity, cell-based, WI-38
[9] = Selectivity index, ratio of IC50 for human WI38 cells to IC50 for chloroquine-sensitive asexual erythrocyte stage form Plasmodium falciparum NF54; type: toxicity, cell-based, WI-38; conditions: read-out: Ratio IC50
[10] = Growth inhibition of human TK10 cells measured after 24 hrs by SRB assay; type: functional, cell-based; conditions: TK-10, 24 h
[11] = Growth inhibition of human UACC62 cells measured after 24 hrs by SRB assay; type: functional, cell-based; conditions: UACC-62, 24 h
[12] = Growth inhibition of human MCF7 cells measured after 24 hrs by SRB assay; type: functional, cell-based; conditions: MCF7, 24 h
MCF7 = test: Selectivity index, ratio of IC50 for human WI38 cells to IC50 for human MCF7 cells; type: functional
CHO [13] = test: Selectivity index, ratio of IC50 for CHO cells to IC50 for human MCF7 cells; type: functional
[14] = Selectivity index, ratio of IC50 for human MCF7 cells to IC50 for chloroquine-resistant asexual erythrocyte stage form Plasmodium falciparum Dd2; type: functional
WI-38 = test: Selectivity index, ratio of IC50 for human WI38 cells to IC50 for human TK10 cells; type: functional
UACC-62 = test: Selectivity index, ratio of IC50 for human WI38 cells to IC50 for human UACC62 cells; type: functional
CHO [15] = test: Selectivity index, ratio of IC50 for CHO cells to IC50 for human TK10 cells; type: functional
CHO [16] = test: Selectivity index, ratio of IC50 for CHO cells to IC50 for human UACC62 cells; type: functional
[17] = Selectivity index, ratio of IC50 for human TK10 cells to IC50 for chloroquine-resistant asexual erythrocyte stage form Plasmodium falciparum Dd2; type: functional, TK-10
[18] = Selectivity index, ratio of IC50 for human UACC62 cells to IC50 for chloroquine-resistant asexual erythrocyte stage form Plasmodium falciparum Dd2; type: functional, UACC-62

SMILES	Tm [1] [°C]	IC50 (Plasmodium falciparum [2]) [µM]	IC50 (Plasmodium falciparum [3]) [µM]	Ratio IC50 [4]	IC50 at 48 h [5] [µM]	selectivity ratio [6]	IC50 at 48 h [8] [µM]	selectivity ratio [9]	IC50 [10] [µM]	IC50 [11] [µM]	IC50 [12] [µM]	Ratio IC50 (MCF7)	Ratio IC50 (CHO [13])	Ratio IC50 [14]	Ratio IC50 [18]	further results
C[C@H]1[C@@H](O)O[C@@H]2O[C@@]3(C)CC[C@H]4[C@H](C)CC[C@@H]1[C@@]24OO3 [ARTENIMOL]	160	0.0022	0.0012	0.6	> 100	> 45500	–	–	–	–	–	–	–	–	–	–
C[C@@H]1CC[C@H]2C(C)(CO)O[C@@H]3O[C@]4(C)CC[C@@H]1[C@]32OO4 (stereo partly specified)	160.9	0.0041	0.0074	1.8	> 100	> 24400	> 100	> 24400	> 100	> 100	> 100	–	–	–	–	T [7]: 144 °C
C=C1C(=O)O[C@@H]2C3O[C@]3(C)CC/C=C(\C)CC[C@@H]12 (stereo partly specified)	–	–	–	–	–	–	–	–	6.4	15	5.8	–	–	–	–	–
CCCCCC(=O)OCC1(C)O[C@@H]2O[C@]3(C)CC[C@H]4[C@H](C)CC[C@@H]1[C@@]24OO3 (stereo partly specified)	–	0.0601	0.0432	0.7	> 100	> 1660	> 100	> 1660	> 100	> 100	47.5	>2	>2	1100	–	–
C[C@@H]1CC[C@H]2C(C)(COC(=O)c3ccc(-c4ccccc4)cc3)O[C@@H]3O[C@]4(C)CC[C@@H]1[C@]32OO4 (stereo partly specified)	173.8	0.0073	0.0065	0.9	> 100	> 13700	> 100	> 13700	41.7	12	2.51	>40	>40	385	1846	Ratio IC50 (WI-38): >2; Ratio IC50 (UACC-62): >8; Ratio IC50 (CHO [15]): >2; Ratio IC50 (CHO [16]): >8; Ratio IC50 [17]: 6415
CO[C@H]1O[C@@H]2O[C@@]3(C)CC[C@H]4[C@H](C)CC[C@@H]([C@H]1C)[C@@]24OO3 [ARTEMETHER]	186	0.0038	0.0023	0.6	> 100	> 26300	–	–	–	–	–	–	–	–	–	–
C[C@H]1[C@H](OC(=O)CCC(=O)O)O[C@@H]2O[C@@]3(C)CC[C@H]4[C@H](C)CC[C@@H]1[C@@]24OO3 [ARTESUNATE]	134.7	0.008	0.0075	0.9	> 100	> 12500	> 100	> 12500	–	–	–	–	–	–	–	–
C[C@@H]1CC[C@H]2C(C)(COC(=O)c3cc4ccccc4o3)O[C@@H]3O[C@]4(C)CC[C@@H]1[C@]32OO4 (stereo partly specified)	172.1	0.0146	0.0071	0.5	> 100	> 6850	> 100	> 6850	> 100	78.7	18.2	>6	>6	2563	11085	–
C[C@@H]1CC[C@H]2C(C)(COC(=O)c3ccco3)O[C@@H]3O[C@]4(C)CC[C@@H]1[C@]32OO4 (stereo partly specified)	177.3	0.0092	0.0037	0.4	> 100	> 10900	> 100	> 10900	> 100	> 100	> 100	–	–	–	–	–
C[C@@H]1CC[C@H]2C(C)(C=O)O[C@@H]3O[C@]4(C)CC[C@@H]1[C@]32OO4 (stereo partly specified)	174.9	0.0069	0.0041	0.6	> 100	> 14500	> 100	> 14500	36.6	7.8	6.4	6	–	1560	1900	Ratio IC50 (WI-38): >3; Ratio IC50 (UACC-62): >13; Ratio IC50 [17]: 8927
C[C@@H]1CC[C@H]2C(C)(COC(=O)c3cccs3)O[C@@H]3O[C@]4(C)CC[C@@H]1[C@]32OO4 (stereo partly specified)	170.8	0.0048	0.0059	1.2	> 100	> 20800	> 100	> 20800	> 100	39.3	46.6	>2	>2	7898	6661	–
CC[C@H]1CN2CCc3cc(OC)c(OC)cc3[C@@H]2C[C@@H]1C[C@H]1NCCc2cc(OC)c(OC)cc21 [EMETINE]	–	–	–	–	0.29	–	0.05	–	–	–	–	–	–	–	–	–
C[C@@H]1CC[C@H]2C(C)(COC(=O)CCc3ccccc3)O[C@@H]3O[C@]4(C)CC[C@@H]1[C@]32OO4 (stereo partly specified)	–	0.0074	0.0115	1.6	> 100	> 13500	> 100	> 13500	> 100	69.3	34.2	>3	>3	2974	6026	Ratio IC50 (UACC-62): >1.4; Ratio IC50 (CHO [16]): >1.4
Cc1ccsc1C(=O)OCC1(C)O[C@@H]2O[C@]3(C)CC[C@H]4[C@H](C)CC[C@@H]1[C@@]24OO3 (stereo partly specified)	–	0.0072	0.0071	1	> 100	> 13900	> 100	> 13900	> 100	13.9	6.8	>15	>15	958	1958	–
CCCC(=O)OCC1(C)O[C@@H]2O[C@]3(C)CC[C@H]4[C@H](C)CC[C@@H]1[C@@]24OO3 (stereo partly specified)	–	0.0169	0.0069	0.4	> 100	> 5920	> 100	> 5920	> 100	> 100	53.6	>2	>2	7768	–	–
CC(=O)Oc1ccccc1C(=O)OCC1(C)O[C@@H]2O[C@]3(C)CC[C@H]4[C@H](C)CC[C@@H]1[C@@]24OO3 (stereo partly specified)	175.2	0.0027	0.0043	1.6	> 100	> 37000	> 100	> 37000	> 100	19	10.5	>10	>10	2442	4419	–
